In the NIST ThermoML archive (doi:10.1016/j.jct.2019.03.025):

Test: xn = mol fraction of the nth substance listed
Settings: Liquid, Vibrating tube method

Cc1cccc(C)c1 [1,3-dimethylbenzene] + CCCCCCCCCC
mass density [kg/m3]
Settings	293.15 K	303.15 K	313.15 K	323.15 K	333.15 K	343.15 K	353.15 K	363.15 K
100 kPa, x2 = 0	864.2	855	846.7	837.7	829	820	811.3	802.2
100 kPa, x2 = 0.2005	825.1	816	808.1	799.4	791.1	782.3	773.9	765.1
100 kPa, x2 = 0.3999	793.6	784.6	777	768.6	760.5	752	743.8	735.2
100 kPa, x2 = 0.603	768.3	759.3	752	743.9	735.9	727.6	719.6	711.3
100 kPa, x2 = 0.7998	748.3	739.4	732.3	724.4	716.6	708.4	700.5	692.3
1000 kPa, x2 = 0	864.4	855.4	846.9	838.6	829.8	821.1	812.2	803.3
1000 kPa, x2 = 0.2005	825.4	816.7	808.4	800.3	791.9	783.5	774.8	766.2
1000 kPa, x2 = 0.3999	794.1	785.6	777.4	769.5	761.3	753.1	744.7	736.4
1000 kPa, x2 = 0.603	768.8	760.5	752.5	744.7	736.7	728.7	720.5	712.5
1000 kPa, x2 = 0.7998	748.9	740.8	732.8	725.2	717.4	709.4	701.4	693.5
3000 kPa, x2 = 0	865.8	857.5	848.6	840.2	831.7	823	814.3	805.5
3000 kPa, x2 = 0.2005	826.8	818.7	810.1	802	793.8	785.4	777.1	768.6
3000 kPa, x2 = 0.3999	795.4	787.4	779.1	771.3	763.3	755.1	747	738.8
3000 kPa, x2 = 0.603	770.2	762.3	754.1	746.5	738.7	730.7	722.8	714.9
3000 kPa, x2 = 0.7998	750.2	742.4	734.4	727	719.4	711.5	703.7	695.9
5000 kPa, x2 = 0	866.9	858.8	850.1	841.9	833.4	825	816.2	807.6
5000 kPa, x2 = 0.2005	828	820.1	811.7	803.8	795.6	787.5	779.1	770.8
5000 kPa, x2 = 0.3999	796.6	789	780.8	773.1	765.1	757.2	749	741
5000 kPa, x2 = 0.603	771.4	763.9	755.8	748.3	740.5	732.8	724.8	717.1
5000 kPa, x2 = 0.7998	751.5	744	736.1	728.8	721.2	713.6	705.8	698.2
10000 kPa, x2 = 0	870.5	862.3	854	845.9	837.6	829.4	821	812.4
10000 kPa, x2 = 0.2005	831.7	823.8	815.7	808	799.9	792	784	775.7
10000 kPa, x2 = 0.3999	800.4	792.5	784.7	777.3	769.5	761.8	753.9	745.9
10000 kPa, x2 = 0.603	775.2	767.5	759.8	752.6	744.9	737.5	729.8	722
10000 kPa, x2 = 0.7998	755.2	747.7	740.2	733.1	725.7	718.3	710.8	703
15000 kPa, x2 = 0	873.8	865.8	857.6	849.8	841.6	833.6	825.7	817.6
15000 kPa, x2 = 0.2005	835.1	827.3	819.4	811.9	804.1	796.4	788.7	781
15000 kPa, x2 = 0.3999	803.7	796.2	788.5	781.2	773.7	766.1	758.7	751.2
15000 kPa, x2 = 0.603	778.6	771.2	763.6	756.6	749.2	741.8	734.6	727.4
15000 kPa, x2 = 0.7998	758.6	751.4	743.9	737.1	729.9	722.6	715.6	708.5
20000 kPa, x2 = 0	877	869	861.1	853.6	845.6	837.9	829.8	821.8
20000 kPa, x2 = 0.2005	838.3	830.6	822.9	815.8	808.1	800.7	793	785.3
20000 kPa, x2 = 0.3999	807	799.5	792.1	785.1	777.7	770.5	763	755.6
20000 kPa, x2 = 0.603	781.8	774.4	767.2	760.4	753.2	746.2	739	731.7
20000 kPa, x2 = 0.7998	761.8	754.7	747.6	741	733.9	727	720	712.8
25000 kPa, x2 = 0	880.2	872.2	864.5	857	849.3	841.7	834	826
25000 kPa, x2 = 0.2005	841.5	833.8	826.4	819.2	811.9	804.6	797.2	789.5
25000 kPa, x2 = 0.3999	810.2	802.7	795.6	788.6	781.4	774.3	767.2	759.8
25000 kPa, x2 = 0.603	785	777.8	770.7	763.8	756.9	750	743.1	735.9
25000 kPa, x2 = 0.7998	765.1	758	751.1	744.4	737.7	730.9	724.1	717
30000 kPa, x2 = 0	883.2	875.3	867.7	860.4	852.8	845.5	838	830.2
30000 kPa, x2 = 0.2005	844.5	837	829.7	822.7	815.4	808.4	801.2	793.8
30000 kPa, x2 = 0.3999	813.3	805.9	798.8	792.1	785	778.2	771.2	764.1
30000 kPa, x2 = 0.603	788.1	780.9	773.9	767.4	760.5	753.9	747.1	740.2
30000 kPa, x2 = 0.7998	768.2	761.2	754.3	747.9	741.3	734.7	728.1	721.4
35000 kPa, x2 = 0	886	878.2	870.9	863.7	856.2	849.2	841.7	834.2
35000 kPa, x2 = 0.2005	847.3	840.1	833	826	818.9	812.1	805	797.8
35000 kPa, x2 = 0.3999	816.1	809	802.1	795.3	788.4	781.9	775	768.1
35000 kPa, x2 = 0.603	790.9	784.1	777.2	770.6	763.9	757.6	750.9	744.3
35000 kPa, x2 = 0.7998	771	764.3	757.6	751.2	744.7	738.4	731.9	725.4
40000 kPa, x2 = 0	888.7	881	873.8	866.9	859.7	852.5	845.3	838.1
40000 kPa, x2 = 0.2005	850.1	842.9	835.9	829.2	822.4	815.5	808.6	801.7
40000 kPa, x2 = 0.3999	818.8	811.8	805	798.6	792	785.3	778.6	772
40000 kPa, x2 = 0.603	793.7	786.9	780.1	773.9	767.4	761	754.5	748.2
40000 kPa, x2 = 0.7998	773.8	767.1	760.5	754.4	748.2	741.8	735.4	729.3
50000 kPa, x2 = 0	894.4	886.7	879.8	873	866	859.1	852.1	845.2
50000 kPa, x2 = 0.2005	855.8	848.6	841.9	835.3	828.7	822.1	815.4	808.8
50000 kPa, x2 = 0.3999	824.5	817.5	810.9	804.7	798.2	791.9	785.4	779.1
50000 kPa, x2 = 0.603	799.4	792.6	786.1	779.9	773.7	767.6	761.3	755.2
50000 kPa, x2 = 0.7998	779.4	772.8	766.4	760.4	754.4	748.5	742.2	736.3
60000 kPa, x2 = 0	899.1	892	885.1	878.8	871.9	865	858.5	852
60000 kPa, x2 = 0.2005	860.6	853.9	847.2	841.2	834.6	828.1	821.8	815.6
60000 kPa, x2 = 0.3999	829.2	822.7	816.2	810.5	804.2	797.8	791.8	785.8
60000 kPa, x2 = 0.603	804	797.8	791.3	785.8	779.6	773.4	767.6	761.8
60000 kPa, x2 = 0.7998	784.1	778	771.6	766.3	760.4	754.2	748.5	742.9
